Usually Emax stands for the greatest response seen or fitted, relative to the assay's reference.

The experiment deals with T1, SIRT1 (Homo sapiens, UniProt Q96EB6).
T1 construct: His-tag (N); made in house; host or cells: E. coli BL21(DE3), T7-promoter vector
T1 sequence (Q96EB6 1-747): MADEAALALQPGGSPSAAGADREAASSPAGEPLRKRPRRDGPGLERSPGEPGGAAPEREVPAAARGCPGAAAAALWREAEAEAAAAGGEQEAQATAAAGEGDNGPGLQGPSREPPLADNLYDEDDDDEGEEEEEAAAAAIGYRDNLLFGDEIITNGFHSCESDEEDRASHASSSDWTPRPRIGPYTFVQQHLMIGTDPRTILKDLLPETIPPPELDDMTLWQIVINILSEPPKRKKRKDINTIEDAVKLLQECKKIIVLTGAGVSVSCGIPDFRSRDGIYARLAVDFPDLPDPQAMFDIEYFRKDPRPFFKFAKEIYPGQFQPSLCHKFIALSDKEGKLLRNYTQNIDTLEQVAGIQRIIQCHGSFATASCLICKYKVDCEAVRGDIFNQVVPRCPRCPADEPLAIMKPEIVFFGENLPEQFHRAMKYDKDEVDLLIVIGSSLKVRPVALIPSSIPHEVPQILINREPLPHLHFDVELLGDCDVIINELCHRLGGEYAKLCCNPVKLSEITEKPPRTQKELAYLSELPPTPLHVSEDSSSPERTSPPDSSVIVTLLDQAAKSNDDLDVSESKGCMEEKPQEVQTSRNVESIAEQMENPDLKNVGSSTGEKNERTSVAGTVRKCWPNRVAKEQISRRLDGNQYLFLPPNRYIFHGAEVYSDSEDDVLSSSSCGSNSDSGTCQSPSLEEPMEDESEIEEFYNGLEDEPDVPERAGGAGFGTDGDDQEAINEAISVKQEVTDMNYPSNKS
Briefly: Mass spectrometry based assay for modulators of SIRT1 activity (deacetylation of p53-based acetylated peptide). The format is biochemical. The note with it: for EC1.5: concentration of test compound that results in 150% activation of SIRT1, 0.5 μM peptide substrate, 120 μM βNAD+, 10 nM SIRT1, 25 min, 25° C.; for Emax: percent maximum fold activation of SIRT1. An excerpt: A mass spectrometry based assay was used to identify modulators of SIRT1 activity. The mass spectrometry based assay utilizes a peptide having 20 amino acid residues as follows: Ac-EE-K(biotin)-GQSTSSHSK(Ac)NleSTEG-K(5TMRi)-EE-NH2 (SEQ ID NO: 1) wherein K(Ac) is an acetylated lysine residue and Nle is a norleucine. The peptide is labeled with the fluorophore 5TMR (excitation 540 nm/emission 580 nm) at the C-terminus. The sequence of the peptide substrate is based on p53 with several modifications. In addition, the methionine residue naturally present in the sequence was replaced with the norleucine because the methionine may be susceptible to oxidation during synthesis and purification.
The mass spectrometry assay is conducted as follows: 0.5 μM peptide substrate and 120 μM βNAD+ is incubated with 10 nM SIRT1 for 25 minutes at 25° C. in a reaction buffer (50 mM Tris-acetate pH 8, 137 mM NaCl, 2.7 mM KCl, 1 mM MgCl2, 5 mM DTT, 0.05% BSA). Test compounds may be added to the reaction as described above. The SirT1 gene is cloned into a T7-promoter containing vector and transformed into BL21(DE3). After the 25 minute incubation with SIRT1, 10 μL of 10% formic acid is added to stop the reaction. Reactions are sealed and frozen for later mass spec analysis. Determination of the mass of the substrate peptide allows for precise determination of the degree of acetylation (i.e. starting material) as compared to deacetylated peptide (product).
A control for inhibition of sirtuin activity is conducted by adding 1 μL of 500 mM nicotinamide as a negative control at the start of the reaction (e.g., permits determination of maximum sirtuin inhibition). A control for activation of sirtuin activity is conducted using 10 nM of sirtuin protein, with 1 μL of DMSO in place of compound, to determinine the amount of deacetylation of the substrate at a given timepoint within the linear range of the assay. This timepoint is the same as that used for test compounds and, within the linear range, the endpoint represents a change in velocity.
For the above assay, SIRT1 protein was expressed and purified as follows. The SirT1 gene was cloned into a T7-promoter containing vector and transformed into BL21(DE3). The protein was expressed by induction with 1 mM IPTG as an N-terminal His-tag fusion protein at 18° C. overnight and harvested at 30,000×g. Cells were lysed with lysozyme in lysis buffer (50 mM Tris-HCl, 2 mM Tris[2-carboxyethyl]phosphine (TCEP), 10 μM ZnCl2, 200 mM NaCl) and further treated with sonication for 10 min for complete lysis. The protein was purified over a Ni-NTA column (Amersham) and fractions containing pure protein were pooled, concentrated and run over a sizing column (Sephadex S200 26/60 global). The peak containing soluble protein was collected and run on an Ion-exchange column (MonoQ). Gradient elution (200 mM-500 mM NaCl) yielded pure protein. This protein was concentrated and dialyzed against dialysis buffer (20 mM Tris-HCl, 2 mM TCEP) overnight. The protein was aliquoted and frozen at −80° C. until further use.
Sirtuin modulating compounds that activated SIRT1 were identified using the assay described above and are shown below in Table 1. The EC1.5 values represent the concentration of test compounds that result in 150% activation of SIRT1. The EC1.5 values for the activating compounds are represented by A (EC1.5<1.0 uM), B (EC1.5 1-25 uM), C (EC1.5>25 uM). The percent maximum fold activation is represented by A (Fold activation >200%) or B (Fold Activation <200%). “NT” indicates the compound was not tested in a particular assay.

For `O=C(Nc1cccn2cc(-c3cccc(-c4ccccc4)c3)nc12)c1ncccn1` [Compound 125], the EC1.5 entry is given as “B (EC1.5 1-25 uM)” and the Emax is less than 200%.

On to `Cc1nc(C)c(-c2nc3c(C(=O)Nc4ccccn4)cccn3n2)s1` [Compound 230], for which the EC1.5 entry is given as “C (EC1.5>25 uM)” and the Emax is less than 200%.

In the case of `O=C(Nc1ccccn1)c1cccn2nc(-c3cc(Cl)ccc3C(F)(F)F)nc12` [Compound 224], the EC1.5 result is on record as “B (EC1.5 1-25 uM)” and the Emax is less than 200%.

For the molecule `O=C(Nc1nccs1)c1cccn2cc(-c3ccc(C(F)F)cc3)nc12` [Compound 202, 2-(4-(difluoromethyl)phenyl)-N-(thiazol-2-yl)imidazo[1,2-a]pyridine-8-carboxamide], the EC1.5 entry is given as “C (EC1.5>25 uM)” and the maximal response (Emax) was less than 200%.

With `O=C(Nc1nccs1)c1cccn2nc(-c3ccccc3OC(F)(F)F)nc12` [Compound 227], the EC1.5 entry is given as “B (EC1.5 1-25 uM)” and the Emax was more than 200%.

For the molecule `O=C(Nc1ccccn1)c1cccn2nc(-c3cc(N4CCOCC4)ccc3C(F)(F)F)nc12` [Compound 222], the EC1.5 result was “A (EC1.5<1.0 uM)” and the Emax was more than 200%.

For the molecule `O=C(Nc1nc(CN2CCOCC2)cs1)c1cccn2nc(-c3cccc(OC(F)(F)F)c3)nc12` [Compound 179], the EC1.5 result is “B (EC1.5 1-25 uM)” and the Emax was more than 200%.

In the case of `O=C(Nc1cccn2cc(-c3cccc(C(F)(F)F)c3)nc12)c1cccnc1` [Compound 120], the EC1.5 entry is listed as “C (EC1.5>25 uM)” and the maximum response (Emax) is less than 200%.

Regarding `O=C(Nc1nc(CN2CCOCC2)cs1)c1cccn2cc(-c3cccc(F)c3F)nc12` [Compound 231], the EC1.5 result is “B (EC1.5 1-25 uM)” and the Emax is less than 200%.

As to `O=C(Nc1cccc(CN2CCOCC2)n1)c1cccn2cc(-c3cc(F)cc(F)c3)nc12` [Compound 193], the EC1.5 entry is “A (EC1.5<1.0 uM)” and the Emax was more than 200%.

As for `O=C(Nc1ccncn1)c1nccn2cc(-c3ccccc3OC(F)(F)F)nc12` [Compound 244], the EC1.5 entry is reported as “B (EC1.5 1-25 uM)” and the Emax was more than 200%.

For the molecule `O=C(Nc1nccs1)c1cccn2cc(-c3ccc(CN4CCOCC4)cc3)nc12` [Compound 262, 2-(4-(morpholinomethyl)phenyl)-N-(thiazol-2-yl)imidazo[1,2-a]pyridine-8-carboxamide], the EC1.5 entry is “B (EC1.5 1-25 uM)” and the Emax was more than 200%.

For the molecule `O=C(Nc1nccs1)c1cccn2nc(-c3cc(N4CCOCC4)ccc3C(F)(F)F)nc12` [Compound 221, 2-(5-morpholino-2-(trifluoromethyl)phenyl)-N-(thiazol-2-yl)-[1,2,4]triazolo[1,5-a]pyridine-8-carboxamide], the EC1.5 result is listed as “A (EC1.5<1.0 uM)” and the Emax was more than 200%.

On to `O=C(Nc1cccc(CN2CCOCC2)n1)c1cccn2cc(-c3cccc(Cl)c3)nc12` [Compound 234], for which the EC1.5 result is reported as “A (EC1.5<1.0 uM)” and the Emax is more than 200%.

Turning to `O=C(Nc1nccs1)c1nccn2cc(-c3ccc(N4CCCC4)cc3)nc12` [Compound 168], the EC1.5 entry is given as “C (EC1.5>25 uM)” and the Emax was less than 200%.

`O=C(Nc1cccn2cc(-c3ccccc3)nc12)c1cccc(N2CCCC2)c1` [Compound 131]: the EC1.5 entry is on record as “C (EC1.5>25 uM)” and the Emax was less than 200%.

As to `Cc1cnc(NC(=O)c2nccn3cc(-c4ccc(F)cc4C(F)(F)F)nc23)s1` [Compound 190], the EC1.5 entry is listed as “A (EC1.5<1.0 uM)” and the Emax is more than 200%.

In the case of `Cc1ccc(NC(=O)c2cccn3cc(-c4ccc(F)cc4C(F)(F)F)nc23)cc1` [Compound 141], the EC1.5 result is recorded as “A (EC1.5<1.0 uM)” and the Emax was more than 200%.

For `O=C(Nc1nc(CN2CCOCC2)cs1)c1cccn2cc(-c3ccc(F)cc3C(F)(F)F)nc12` [Compound 237], the EC1.5 result is “A (EC1.5<1.0 uM)” and the Emax is more than 200%.

For the molecule `Cc1cc(-c2nc3c(C(=O)Nc4cccc(CN5CCOCC5)n4)cccn3n2)ccn1` [Compound 217], the EC1.5 result is on record as “B (EC1.5 1-25 uM)” and the Emax is more than 200%.

On to `O=C(Nc1ccccn1)c1cccn2nc(-c3ccccc3OC(F)(F)F)nc12` [Compound 228], for which the EC1.5 entry is on record as “B (EC1.5 1-25 uM)” and the Emax is more than 200%.

Consider `O=C(Nc1cccnn1)c1nccn2cc(-c3ccccc3C(F)(F)F)nc12` [Compound 174], for which the EC1.5 result is on record as “B (EC1.5 1-25 uM)” and the Emax is more than 200%.

With `Cc1ccc(-c2cn3ccnc(C(=O)Nc4nccs4)c3n2)cn1` [Compound 162], the EC1.5 entry is on record as “C (EC1.5>25 uM)” and the Emax is less than 200%.

Turning to `O=C(Nc1nccs1)c1cccn2cc(-c3ccccc3F)nc12` [Compound 152], the EC1.5 entry was “C (EC1.5>25 uM)” and the Emax is less than 200%.

Turning to `O=C(Nc1cccn2cc(-c3cccc(-c4ccccc4)c3)nc12)c1cscn1` [Compound 121], the EC1.5 entry is “C (EC1.5>25 uM)” and the Emax is less than 200%.

In the case of `O=C(Nc1ccncn1)c1nccn2cc(-c3ccc(F)cc3C(F)(F)F)nc12` [Compound 246], the EC1.5 entry is “A (EC1.5<1.0 uM)” and the Emax is more than 200%.

Regarding `O=C(Nc1nc(CN2CCOCC2)cs1)c1cccn2cc(-c3cc(F)c(F)c(F)c3)nc12` [Compound 196], the EC1.5 entry is “B (EC1.5 1-25 uM)” and the maximal response (Emax) is less than 200%.

Take `O=C(Nc1cccn2cc(-c3cccc(C(F)(F)F)c3)nc12)c1cnccn1` [Compound 111]: the EC1.5 result is recorded as “B (EC1.5 1-25 uM)” and the maximal effect (Emax) is less than 200%.

Consider `O=C(Nc1nccs1)c1nccn2cc(-c3ccccc3C(F)(F)F)nc12` [Compound 171], for which the EC1.5 result is reported as “A (EC1.5<1.0 uM)” and the maximal response (Emax) is more than 200%.

As to `Cc1ccc(-c2cn3ccnc(C(=O)Nc4nc(CN5CCOCC5)cs4)c3n2)cn1` [Compound 164], the EC1.5 entry is given as “B (EC1.5 1-25 uM)” and the Emax is less than 200%.

As to `O=C(Nc1cccc(CN2CCOCC2)n1)c1cccn2cc(-c3cccc(OC(F)(F)F)c3)nc12` [Compound 161], the EC1.5 result is on record as “A (EC1.5<1.0 uM)” and the Emax was more than 200%.

For `O=C(Nc1nccs1)c1cccn2cc(-c3cccc(CN4CCOCC4)c3)nc12` [Compound 254], the EC1.5 entry is reported as “A (EC1.5<1.0 uM)” and the maximal response (Emax) was more than 200%.
